Source: patent publication US5858670A, “Bio-oligomer libraries and a method of use thereof” (The Arizona Board of Regents, priority 1996, dated 1999)
Where two headings read alike, the source gives them in different places. Where no end group is shown, it is not given here. [ ]: non-standard residue; d: D form. Ahx = NCCCCCC(=O)O; βAla = NCCC(=O)O

What was measured:
anti-v-mos MAb = assay: solution phase binding studies with [3H]Ac-v-mos radioligand; set-up: species or system mouse; details: competition with 20 nM [3H]Ac-v-mos for 10 μg/ml anti-v-mos MAb
Experimental: Peptide ligand affinity for anti-v-mos mAb was measured by solution phase binding studies using [^3 H]acetyl v-mos peptide ([^3 H]Ac-v-mos) as the radioligand. The radioligand was prepared by N-terminal acetylation of v-mos peptide, prior to the deprotection of the side chains, with an equimolar amount of [^3 H]sodium acetate (specific activity=2.52 Ci/mmole, New England Nuclear, Boston, Mass.). […] Specific binding was defined as the difference between [^3 H]Ac-v-mos binding in-the presence (nonspecific) and absence (total) of 100 μM unlabelled v-mos peptide for each [^3 H]Ac-v-mos concentration. Bound radioligand was separated by centrifugation using a 10-fold excess (binding capacity relative to immunoglobulin used) of Protein-G Sepharose (Pharmacia) to precipitate the antibody. […] Over 50% of the total binding was specific in the inhibition studies. Saturation and inhibition binding constants were determined for single site binding by nonlinear regression analysis as previously described (Knapp and Yamamura, 1990, Life Sci. 46:1457-1463).

streptavidin = target: T1, streptavidin (Streptomyces avidinii, UniProt P22629); assay: biotin inhibition of LHPQF-resin staining by streptavidin-alkaline phosphatase; format: binding
T1 construct: purchased Pierce, Rockford, Ill
Experimental: FIG. 8. […] A: 100 nM; B: 10 nM; C: 1 nM; and D: 0.1 nM biotin. Blank beads (β-Ala-aminocaproic acid-resin) were mixed 1:1 with the LHPQFD-resin prior to incubating with streptavidin-alkaline phosphatase to serve as an internal negative control.
The LHPQF-resin was then mixed with streptavidin-alkaline phosphatase in the presence of varying concentration of biotin. […] The inhibition study establishes that the HPQ consensus sequence binds to the biotin-binding site of streptavidin.

anti-β-endorphin MAb [1] = assay: library bead screening with biotinylated anti-β-endorphin MAb and streptavidin-alkaline phosphatase; format: binding; details: recycled pentapeptide library, 16 hours with biotinylated MAb
Experimental: Prior to using the same random peptide library to screen with anti-β-endorphin MAb, all the blue beads that had stained for streptavidin-alkaline phosphatase alone were removed. The remaining beads were then treated with 8M guanidine hydrochloride to remove any bound protein. This recycled library was then mixed with biotinylated anti-β-endorphin MAb (anti-β-endorphin, clone 3-E7, was obtained commercially from Boehringer Mannheim, Indianapolis, Ind.) for 16 hours. After extensive washing, a secondary step with streptavidin-alkaline phosphatase was used to trigger the staining reaction for the ELISA. […] Peptide analogues with various carboxyl terminus of these ligand leads were synthesized and their affinity (Ki) was determined using [^3 H]Leu-enkaphalin (New England Nuclear, Boston, Mass.) as the labelled ligand and the unlabelled peptides as the competing ligand (anti-β-endorphin assay, Section 10.1.2, supra).

anti-β-endorphin MAb [2] = assay: anti-β-endorphin binding assay: peptide inhibition of [3H][Leu]enkephalin binding, solution phase; details: for Ki: competition with 5.0 nM [3H][Leu]enkephalin
Experimental: Peptide ligand binding affinities for the anti-β-endorphin monoclonal antibody were determined in solution phase. […] Specific binding was defined as the difference between binding measured in the presence or absence of 1.0 μM unlabelled [Leu]enkephalin. Bound radioligand was precipitated by the addition of a 10-fold excess of Protein-G Sepharose (Pharmacia) followed by an overnight incubation (23°-24° C.). The Protein-G Sepharose was collected by centrifugation (13,000×g for 5 minutes) and the pellets suspended in 250 μl 5% (v/v) acetic acid before transfer to vials for liquid scintillation counting. […] Peptide ligand inhibition curves were produced for eight concentrations of the peptide over a 400-fold range. Binding data for saturation and inhibition studies were analyzed by weighted-nonlinear regression methods using appropriate one site models reported by Knapp et al. (1990, J. Pharmacol. Exp. Ther. 255:1278-1282). Ki values for inhibition binding constants were calculated using the method of Cheng and Prusoff (1973, Biochem. Pharmacol. 22:3099-3102). Each Ki value was calculated from three to four independent determinations.

[3] = UV/VIS irradiation of ONb-linked peptide resins, HPLC of released product; format: physicochemical; details: in water
Experimental: Each peptide was irradiated for 1 and 3 hours with ultraviolet (UV) and visible (VIS) light in 0.3 ml of water or 3/7 mixture of chloroethanol:dichloromethane. A total of 16+16 experiments were run and assayed.
After exposure the supernatant was filtered off, lyophilized and re-dissolved to equal volumes of MeOH (0.3 ml). The products were analyzed on the HPLC.

[4] = system: anti-v-mos monoclonal antibody; assay: bead staining with anti-v-mos monoclonal antibody and alkaline phosphatase secondary antibody (Example 8); format: binding, mouse; details: 1 μg/ml MAb, secondary antibody 1:2000, BCIP/NBT, 15 minutes
Experimental: The long v-mos beads were mixed with a thousand fold excess of the short v-mos beads. Two milliliters of the purified anti-v-mos monoclonal antibody (1 μg/ml) in PBS with 0.1% Tween 20 was added to the mixture of long and short v-mos beads and incubated at room temperature for one hour with gentle mixing. […]. The beads were then washed on a small polypropylene disposable column (obtained from Isolab) where the beads were retained by the frit. The beads were then mixed with 2 ml of a secondary antibody at 1:2000 dilution for one hour. After washing, the beads were poured into a polystyrene petri dish and allowed to settle. The supernatant was removed and a solution of 5-bromo-4-chloro-3-indoyl phosphate and nitro blue tetrazolium was gently added as a substrate.
This made it possible immediately to detect a single dark bead within a lawn of thousands of colorless beads. The distinction between the beads is illustrated in FIGS. 2 to 4, all of which are photographs at 40× magnification of the beads distributed in petri dishes. […] Accordingly, the beads that contained the peptide sequence of interest were readily distinguished and isolated from the other beads in the library.

[5] = system: anti-v-mos monoclonal antibody; assay: PAM resin bead staining with anti-v-mos monoclonal antibody and labelled secondary antibody (Example 9); format: binding, mouse; details: 1 ug/ml MAb, secondary antibody 1:100, ABTS with H2O2, 15 minutes
Experimental: Approximately 0.1 mg of the PAM resin/v-mos peptide described above was mixed with a hundred-fold excess of N^β -Fmoc-alanine PAM resin beads obtained from Bachem, Inc. Two ml of the purified monoclonal antibody (1 ug/ml) in PBS plus 0.1% Tween 20 were added to the peptide/support mixture and incubated at room temperature for 45 minutes with gentle mixing.
The beads were washed on a small polypropylene disposable column (obtained from Isolab) which retained the beads on a frit. The beads were then mixed with 2 ml of […] secondary antibody (1:100 dilution) for one hour. After washing, the beads were spread on a piece of glass filter and soaked in 2,2'-azinobis (3-ethylbenzthiozoline sulfonic acid) (ABTS) substrate with H2 O2. […] A small surrounding lighter green halo formed on the glass filter. […] The v-mos beads were readily distinguished.

anti-v-mos = details: cited from earlier work
[6] = peptide with carboxyl terminus --NH2, read-out: Ki, Carboxyl Terminus --NH2
[7] = peptide with carboxyl terminus --OH, read-out: Ki, Carboxyl Terminus --OH

T1 sequence (P22629 25-183, species assumed): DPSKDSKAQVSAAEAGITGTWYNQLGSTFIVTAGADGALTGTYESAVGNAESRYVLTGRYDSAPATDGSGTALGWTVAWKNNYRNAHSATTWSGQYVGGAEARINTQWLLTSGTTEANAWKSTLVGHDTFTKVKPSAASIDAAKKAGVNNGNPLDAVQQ

Compound: GFGSVY[βAla]-NH2
- Ki (anti-v-mos MAb): 409 to 442 µM

Compound: O=C(O)CCCC[C@@H]1SC[C@@H]2NC(=O)N[C@@H]21 [Biotin, biotin]
- inhibition of staining of LHPQF-resin (streptavidin; biotin 0.1 nM): no effect on the staining
- inhibition of staining of LHPQF-resin (streptavidin; biotin 1.0 nM): partially inhibited the staining
- inhibition of staining of LHPQF-resin (streptavidin; biotin 10 nM): partially inhibited the staining
- inhibition of staining of LHPQF-resin (streptavidin; biotin 100 nM): completely blocked staining
- effect on staining of LHPQF-resin mimotope beads (streptavidin; biotin 100, 10, 1 and 0.1 nM (figure legend)): concentration-dependent inhibitory effect

Compound: YGALQ
- identified as ligand bead in the screening (anti-β-endorphin MAb [1]): identified in this screening

Compound: YGGLQ
- Ki (anti-β-endorphin MAb [2]; [6]): 2.91 ± 0.695 µM
- Ki (anti-β-endorphin MAb [2]; [7]): 1.98 ± 0.303 µM

Compound: Fmoc-Trp-Tyr (OBu^t)-Phe-βNb-gAla-ACA-EDA-PepSyn K [peptide i]
- cleavage product [3]: cleaved to a single product

Compound: Leu-Gly-Ser-Gly-Gly-Phe-Ser-Val-Tyr-Lys-Ala-aminocaproic acid-ethylenediamine resin [long v-mos beads]
- bead colour after staining [4]: turned purple

Compound: [^3 H][Leu]enkephalin [reference compound]
- Kd (anti-β-endorphin MAb [2]; saturation analysis, n=3, 5 radioligand concentrations 1.87-30 nM): 0.00979 ± 0.00463 µM

Compound: GRRAYE[βAla]-OH
- Ki (anti-v-mos MAb): 15.1 ± 0.5 µM

Compound: GRRAYE[βAla]-NH2
- Ki (anti-v-mos MAb): 9.02 to 20.4 µM

Compound: GSVYKA [short v-mos beads, residue 106-111 of the v-mos gene product on polyacrylamide bead; negative control, reference compound]
- bead colour after staining [4]: remained colorless

Compound: LGSGGFGSVYKA [residues 100 to 111 of the v-mos oncogene product, reference compound]
- Ki (anti-v-mos MAb): 3.2 ± 0.4 µM

Compound: YGGMV
- Ki (anti-β-endorphin MAb [2]; [6]): 14 ± 1.11 µM
- Ki (anti-β-endorphin MAb [2]; [7]): 8.78 ± 1.5 µM
- identified as ligand bead in the screening (anti-β-endorphin MAb [1]): identified in this screening

Compound: GRRPYG-OH
- Ki (anti-v-mos MAb): > 1000 µM

Compound: YGGFA
- Ki (anti-β-endorphin MAb [2]; [6]): 0.072 ± 0.0164 µM
- Ki (anti-β-endorphin MAb [2]; [7]): 0.0329 ± 0.002 µM
- identified as ligand bead in the screening (anti-β-endorphin MAb [1]): identified in this screening

Compound: GRRGME-OH
- Ki (anti-v-mos MAb): > 100 µM

Compound: GFGSVY[βAla]-OH
- Ki (anti-v-mos MAb): 529 to 770 µM

Compound: GFGSVY-OH
- Ki (anti-v-mos MAb): > 1000 µM

Compound: YGGFT
- Ki (anti-β-endorphin MAb [2]; [6]): 0.0652 ± 0.0168 µM
- Ki (anti-β-endorphin MAb [2]; [7]): 0.0369 ± 0.0077 µM
- identified as ligand bead in the screening (anti-β-endorphin MAb [1]): identified in this screening

Compound: YGGFQ
- Ki (anti-β-endorphin MAb [2]; [6]): 0.0401 ± 0.006 µM
- Ki (anti-β-endorphin MAb [2]; [7]): 0.015 ± 0.0017 µM
- identified as ligand bead in the screening (anti-β-endorphin MAb [1]): identified in this screening

Compound: GRRAYE-OH
- Ki (anti-v-mos MAb): 6.79 ± 2.31 µM

Compound: GFGSVY-NH2
- Ki (anti-v-mos MAb): 246 to 337 µM

Compound: GRRPYG[βAla]-NH2
- Ki (anti-v-mos MAb): 20.5 ± 4.5 µM

Compound: Gly-Phe-Gly-Ser-Val-Tyr-aminocaproic acid-β-Ala-resin (GFGSVY-{Ahx-βAla-PAM resin}) [PAM resin/v-mos peptide beads]
- bead colour after staining [5]: turned dark green

Compound: GSVYKA [short v-mos peptide]
- affinity of the antibody (anti-v-mos): negligible affinity

Compound: GRREGP[βAla]-NH2
- Ki (anti-v-mos MAb): 26.9 ± 6.2 µM

Compound: YGGLS
- Ki (anti-β-endorphin MAb [2]; [6]): 0.991 ± 0.052 µM
- Ki (anti-β-endorphin MAb [2]; [7]): 0.726 ± 0.134 µM
- identified as ligand bead in the screening (anti-β-endorphin MAb [1]): identified in this screening

Compound: GRRAYE-NH2
- Ki (anti-v-mos MAb): 24.7 ± 7 µM

Compound: GRRGME[βAla]-NH2
- Ki (anti-v-mos MAb): 24 ± 8.4 µM
